Experimental data: patent US20240409573A1, “CALICHEAMICIN DERIVATIVES AND ANTIBODY DRUG CONJUGATES THEREOF” (priority 2017, published 2024)

How the values were obtained:
Type in all cases: cell-based
[1] = test system: HL60 cells, CD33-target expressing; assay: In vitro cell assay, cell viability by MTS, HL60; conditions: Homo sapiens, HL-60, 96 h, read-out: Average IC50, HL-60
Protocol: (§1) Her2-Target expressing (BT474 (breast cancer), N87 (gastric cancer), MDA-MB-361-DYT2 (breast cancer)) or Her2-non-expressing (MDA-MB-468, HT29) cells, or 0033-target expressing HL60, HEL92.1.7, NB4, TF-1 or 0033-non-expressing (Raji) cells were seeded in 96-well cell culture plates for 24 hours before treatment. Cells were treated with 3-fold serially diluted antibody-drug conjugates or free compounds (i.e., no antibody conjugated to the drug) in duplicate at 10 concentrations. Cell viability was determined by CellTiter 96® AQueous One Solution Cell Proliferation MTS Assay (Promega, Madison WI) 96 hours after treatment. Relative cell viability was determined as percentage of untreated control. IC50 values were calculated using a four parameter logistic model #203 with XLfit v4.2 (IDBS, Guildford, Surry, UK). Results are shown below in Table 3 (for payloads), Table 4 (for Herceptin conjugates), and Table 5 (for CD33 conjugates).

[2] = test system: NB4 cells, CD33-target expressing; assay: In vitro cell assay, cell viability by MTS, NB4; conditions: Homo sapiens, NB-4, 96 h, read-out: Average IC50, NB4
Protocol: as §1

[3] = test system: HT29 cells, Her2-non-expressing; assay: In vitro cell assay, cell viability by MTS, HT29; conditions: Homo sapiens, HT-29, 96 h, read-out: Average IC50, HT29
Protocol: as §1

[4] = test system: Raji cells, CD33-non-expressing; assay: In vitro cell assay, cell viability by MTS, Raji; conditions: Homo sapiens, 96 h, read-out: Average IC50, Raji
Protocol: as §1

[5] = test system: HEL92.1.7 cells, CD33-target expressing; assay: In vitro cell assay, cell viability by MTS, HEL92.1.7; conditions: Homo sapiens, HEL 92.1.7, 96 h, read-out: Average IC50, HEL92.1.7
Protocol: as §1

[6] = test system: TF-1 cells, CD33-target expressing; assay: In vitro cell assay, cell viability by MTS, TF-1; conditions: Homo sapiens, TF-1, 96 h, read-out: Average IC50, TF-1
Protocol: as §1

[7] = test system: N87 (gastric cancer) cells, Her2-target expressing; assay: In vitro cell assay, cell viability by MTS, N87; conditions: 96 h, read-out: Average IC50, N87
Protocol: as §1

[8] = test system: MDA-MB-361-DYT2 (breast cancer) cells, Her2-target expressing; assay: In vitro cell assay, cell viability by MTS, MDA-MB-361-DYT2; conditions: 96 h, read-out: Average IC50, MDA-MB-361-DYT2
Protocol: as §1

| SMILES | IC50 [1] | IC50 [2] | IC50 [3] | IC50 [4] | IC50 [5] | IC50 [6] | IC50 [7] | IC50 [8] |
| --- | --- | --- | --- | --- | --- | --- | --- | --- |
| CCN[C@H]1CO[C@@H](O[C@H]2[C@H](O[C@H]3C#C/C=C\C#C[C@]4(O)CC(=O)C(NC(=O)OC)=C3/C4=C\CSSC3CCNCC3)O[C@H](C)[C@@H](NO[C@H]3C[C@H](O)[C@H](SC(=O)c4c(C)c(I)c(O[C@@H]5O[C@@H](C)[C@H](O)[C@@H](OC)[C@H]5O)c(OC)c4OC)[C@@H](C)O3)[C@@H]2O)C[C@@H]1OC [Example P16] | 0.024 nM | 0.015 nM | 0.035 nM | 0.077 nM | 0.071 nM | 0.15 nM | 0.023 nM | 0.045 nM |
| CCN[C@H]1CO[C@@H](O[C@@H]2C(O)[C@H](NO[C@H]3C[C@H](O)[C@H](SC(=O)c4c(C)c(I)c(O[C@@H]5O[C@@H](C)[C@H](O)[C@@H](OC)[C@H]5O)c(OC)c4OC)[C@@H](C)O3)[C@@H](C)O[C@H]2O[C@H]2C#C/C=C\C#C[C@]3(O)CC(=O)C(NC(=O)OC)=C2/C3=C\CSS[C@H](C)CO)C[C@@H]1OC (stereo in doubt) [Example P47] | 0.054 nM | 0.04 nM | 1.4 nM | 0.05 nM | 0.141 nM | 0.737 nM | 1.87 nM | 6.54 nM |
| CCN[C@H]1CO[C@@H](O[C@H]2[C@H](O[C@H]3C#C/C=C\C#C[C@]4(O)CC(=O)C(NC(=O)OC)=C3/C4=C\CSSC(CC(=O)O)C(=O)O)O[C@H](C)[C@@H](NO[C@H]3C[C@H](O)[C@H](SC(=O)c4c(C)c(I)c(O[C@@H]5O[C@@H](C)[C@H](O)[C@@H](OC)[C@H]5O)c(OC)c4OC)[C@@H](C)O3)[C@@H]2O)C[C@@H]1OC (stereo partly shown) [Example P6] | 0.568 nM | 0.492 nM | 1.14 nM | 1.21 nM | – | 5.93 nM | 1.24 nM | 1.35 nM |
| CCN[C@H]1CO[C@@H](O[C@H]2[C@H](O[C@H]3C#C/C=C\C#C[C@]4(O)CC(=O)C(NC(=O)OC)=C3/C4=C\CSSc3ccccc3C(=O)O)O[C@H](C)[C@@H](NO[C@H]3C[C@H](O)[C@H](SC(=O)c4c(C)c(I)c(O[C@@H]5O[C@@H](C)[C@H](O)[C@@H](OC)[C@H]5O)c(OC)c4OC)[C@@H](C)O3)[C@@H]2O)C[C@@H]1OC [Example P3] | 0.149 nM | 0.081 nM | 0.69 nM | 0.378 nM | 0.371 nM | 1.64 nM | 0.309 nM | 1.75 nM |
| CCN[C@H]1CO[C@@H](O[C@H]2[C@H](O[C@H]3C#C/C=C\C#C[C@]4(O)CC(=O)C(NC(=O)OC)=C3/C4=C\CSSC(C)(C)CC(=O)NN)O[C@H](C)[C@@H](NO[C@H]3C[C@H](O)[C@H](SC(=O)c4c(C)c(I)c(O[C@@H]5O[C@@H](C)[C@H](O)[C@@H](OC)[C@H]5O)c(OC)c4OC)[C@@H](C)O3)[C@@H]2O)C[C@@H]1OC [Example P7] | 0.124 nM | 0.152 nM | 0.075 nM | 0.161 nM | 1.22 nM | > 90 nM | 0.046 nM | 1.03 nM |
| CCN[C@H]1CO[C@@H](O[C@H]2[C@H](O[C@H]3C#C/C=C\C#C[C@]4(O)CC(=O)C(NC(=O)OC)=C3/C4=C\CSSC(C)C)O[C@H](C)[C@@H](NO[C@H]3C[C@H](O)[C@H](SC(=O)c4c(C)c(I)c(O[C@@H]5O[C@@H](C)[C@H](O)[C@@H](OC)[C@H]5O)c(OC)c4OC)[C@@H](C)O3)[C@@H]2O)C[C@@H]1OC [Example P1] | 0.003 nM | 0.003 nM | 0.003 nM | 0.006 nM | 0.028 nM | 0.071 nM | 0.007 nM | 0.021 nM |
| CCN[C@H]1CO[C@@H](O[C@H]2[C@H](O[C@H]3C#C/C=C\C#C[C@]4(O)CC(=O)C(NC(=O)OC)=C3/C4=C\CSSC(C)C(=O)OCC)O[C@H](C)[C@@H](NO[C@H]3C[C@H](O)[C@H](SC(=O)c4c(C)c(I)c(O[C@@H]5O[C@@H](C)[C@H](O)[C@@H](OC)[C@H]5O)c(OC)c4OC)[C@@H](C)O3)[C@@H]2O)C[C@@H]1OC (stereo partly shown) [Example P11] | 0.002 nM | 0.001 nM | 0.006 nM | 0.002 nM | 0.003 nM | 0.03 nM | 0.007 nM | 0.008 nM |
| CCN(CC(=O)O)[C@H]1CO[C@@H](O[C@H]2[C@H](O[C@H]3C#C/C=C\C#C[C@]4(O)CC(=O)C(NC(=O)OC)=C3/C4=C\CSSC(C)C)O[C@H](C)[C@@H](NO[C@H]3C[C@H](O)[C@H](SC(=O)c4c(C)c(I)c(O[C@@H]5O[C@@H](C)[C@H](O)[C@@H](OC)[C@H]5O)c(OC)c4OC)[C@@H](C)O3)[C@@H]2O)C[C@@H]1OC [Example P50] | 0.372 nM | 0.127 nM | 0.775 nM | 0.438 nM | 3.93 nM | 17.9 nM | 1.05 nM | 7.33 nM |
| CCN[C@H]1CO[C@@H](O[C@H]2[C@H](O[C@H]3C#C/C=C\C#C[C@]4(O)CC(=O)C(NC(=O)OC)=C3/C4=C\CSSC(C)(C)CNCCOc3ccccc3)O[C@H](C)[C@@H](NO[C@H]3C[C@H](O)[C@H](SC(=O)c4c(C)c(I)c(O[C@@H]5O[C@@H](C)[C@H](O)[C@@H](OC)[C@H]5O)c(OC)c4OC)[C@@H](C)O3)[C@@H]2O)C[C@@H]1OC [Example P36] | 0.881 nM | – | 1.28 nM | 1.13 nM | – | 6.86 nM | 6.2 nM | 3.85 nM |
| CCN[C@H]1CO[C@@H](O[C@H]2[C@H](O[C@H]3C#C/C=C\C#C[C@]4(O)CC(=O)C(NC(=O)OC)=C3/C4=C\CSSc3ccccn3)O[C@H](C)[C@@H](NO[C@H]3C[C@H](O)[C@H](SC(=O)c4c(C)c(I)c(O[C@@H]5O[C@@H](C)[C@H](O)[C@@H](OC)[C@H]5O)c(OC)c4OC)[C@@H](C)O3)[C@@H]2O)C[C@@H]1OC [Example P4] | 0.017 nM | 0.011 nM | 0.094 nM | 0.056 nM | 0.036 nM | 0.184 nM | 0.086 nM | 0.033 nM |
| CCN[C@H]1CO[C@@H](O[C@H]2[C@H](O[C@H]3C#C/C=C\C#C[C@]4(O)CC(=O)C(NC(=O)OC)=C3/C4=C\CSSC(C)(C)CCN)O[C@H](C)[C@@H](NO[C@H]3C[C@H](O)[C@H](SC(=O)c4c(C)c(I)c(O[C@@H]5O[C@@H](C)[C@H](O)[C@@H](OC)[C@H]5O)c(OC)c4OC)[C@@H](C)O3)[C@@H]2O)C[C@@H]1OC [Example P8] | 0.081 nM | – | 0.07 nM | 0.028 nM | – | 0.36 nM | 0.804 nM | 0.063 nM |
| CCN[C@H]1CO[C@@H](O[C@H]2[C@H](O[C@H]3C#C/C=C\C#C[C@]4(O)CC(=O)C(NC(=O)OC)=C3/C4=C\CSSC(C)(C)CC(N)=O)O[C@H](C)[C@@H](NO[C@H]3C[C@H](O)[C@H](SC(=O)c4c(C)c(I)c(O[C@@H]5O[C@@H](C)[C@H](O)[C@@H](OC)[C@H]5O)c(OC)c4OC)[C@@H](C)O3)[C@@H]2O)C[C@@H]1OC [Example P30] | 0.049 nM | – | 0.057 nM | 0.03 nM | – | 0.112 nM | 0.308 nM | 0.049 nM |
| CCN[C@H]1CO[C@@H](O[C@H]2[C@H](O[C@H]3C#C/C=C\C#C[C@]4(O)CC(=O)C(NC(=O)OC)=C3/C4=C\CSSC(C)(C)CCNC(=O)[C@H](CCCNC(N)=O)NC(=O)[C@@H](NC(C)=O)C(C)C)O[C@H](C)[C@@H](NO[C@H]3C[C@H](O)[C@H](SC(=O)c4c(C)c(I)c(O[C@@H]5O[C@@H](C)[C@H](O)[C@@H](OC)[C@H]5O)c(OC)c4OC)[C@@H](C)O3)[C@@H]2O)C[C@@H]1OC [Example P35] | 2.25 nM | – | 3.67 nM | 2.1 nM | – | 7.5 nM | 14.7 nM | 2.34 nM |
| CCN[C@H]1CO[C@@H](O[C@H]2[C@H](O[C@H]3C#C/C=C\C#C[C@]4(O)CC(=O)C(NC(=O)OC)=C3/C4=C\CSSc3ccccc3)O[C@H](C)[C@@H](NO[C@H]3C[C@H](O)[C@H](SC(=O)c4c(C)c(I)c(O[C@@H]5O[C@@H](C)[C@H](O)[C@@H](OC)[C@H]5O)c(OC)c4OC)[C@@H](C)O3)[C@@H]2O)C[C@@H]1OC [Example P10] | 0.004 nM | 0.003 nM | 0.03 nM | 0.005 nM | 0.004 nM | 0.029 nM | 0.031 nM | 0.025 nM |
